Tests used:
FIV PR = molecular target: T1, FIV PR (Feline immunodeficiency virus, UniProt P16088, C122K/G43I/N93T); assay: Inhibition of FIV PR (Ki, IC50); format: biochemical
T1 construct: made in house; host or cells: E. coli BL21(DE3)
Description: The solution was mixed and incubated for 10 minutes at 37° C. and the reaction quenched by addition of 8M guanidine HCl solution containing 0.2 M sodium acetate at pH 4.2 (100 μL). The cleavage products and substrate were separated by reverse phase HPLC. Absorbance was measured at 215 nm, peak areas were determined and percent conversion to product was calculated using relative peak areas. […] IC50 was determined as the inhibitor concentration at 50% inhibition. […] ([S]=substrate concentration in nmol). The data used was generated similarly to that for Ki with the following modifications. The substrate concentrations used were 560, 448, 336, 224, 111 and 56 μM, in the absence of inhibitor.
Kinetic determinations for both HIV PR and FIV PRs were performed at 37° C. at pH 5.25 in duplicate using F-2000 fluorescence spectrophotometer (Hitachi).
For FIV PRs, the kinetic data were determined under the similar reaction conditions as for HIV PR.

I84V mutant = assay: Cell culture IC90, I84V mutant; format: cell-based, HIV; conditions: Human immunodeficiency virus 1, read-out: IC90 against the I84V mutant
82F/84V mutant = assay: Cell culture IC90, 82F/84V mutant; format: cell-based, HIV; conditions: Human immunodeficiency virus 1, read-out: IC90 against the 82F/84V mutant
[1] = system: SIVmac251 in 174×CEM cells; assay: Ex vivo inhibitor analysis against SIV, p27 antigen ELISA; format: cell-based
Description: The results from tissue culture assays against SIV (FIG. 14) and HIV (FIG. 14) were equally encouraging. […] The effectiveness of compound 1200 against HIV was measured by determining the percentage of viable cells remaining in culture over time in the presence and absence of drug (FIG. 14). In the control, HIV caused formation of multinucleated syncytia and 100% cell death by 9 days post infection. However, the cells cultured with 1 μg/ml (1.1 μM) or 5 μg/ml (5.5 μM) of inhibitor 1200 remained 100% viable after 1 month, identical to results obtained in the absence of virus infection. To test for virus in these cultures, supernatants were removed and added to 1×10^5 uninfected MT-2 cells after a 1:5 dilution with fresh CM. […] In contrast, when 2×10^5 infected MT-2 cells that had been treated with compound 1200 for two weeks were removed and replated in fresh medium with or without compound 1200 only MT-2 cells cultured in the absence of compound 1200 were dead within 4 days (data not shown). […] Cultures are being carried continuously in the presence of compound 12 to look for resistance development. Tests are also underway to determine the level of efficacy of the compound against a defined panel of drug-resistant HIVs. […]

[2] = system: HIV WEAU-1.6 in MT-2 cells; assay: microbe, parasite or virus in culture; format: cell-based
Description: The results from tissue culture assays against SIV (FIG. 14) and HIV (FIG. 14) were equally encouraging. […] The effectiveness of compound 1200 against HIV was measured by determining the percentage of viable cells remaining in culture over time in the presence and absence of drug (FIG. 14). In the control, HIV caused formation of multinucleated syncytia and 100% cell death by 9 days post infection. However, the cells cultured with 1 μg/ml (1.1 μM) or 5 μg/ml (5.5 μM) of inhibitor 1200 remained 100% viable after 1 month, identical to results obtained in the absence of virus infection. To test for virus in these cultures, supernatants were removed and added to 1×10^5 uninfected MT-2 cells after a 1:5 dilution with fresh CM. […] In contrast, when 2×10^5 infected MT-2 cells that had been treated with compound 1200 for two weeks were removed and replated in fresh medium with or without compound 1200 only MT-2 cells cultured in the absence of compound 1200 were dead within 4 days (data not shown). […] Cultures are being carried continuously in the presence of compound 12 to look for resistance development. Tests are also underway to determine the level of efficacy of the compound against a defined panel of drug-resistant HIVs.
WEAU-1.6, a kind gift of George Shaw, University of Alabama (^18), a CXCR4 utilizing isolate, was used for all studies. 2×10^5 MT-2 cells in 0.1 ml were infected for 4 hr, at 37° C., using WEAU-1.6 at 25 TCID50. Before establishing cultures for inhibitor assessment infected cells were washed 3 times with complete medium (CM), which was RPMI-1640 supplemented with 10% FBS, […], 200 mM L-glutamine, and […] of gentamicin sulfate, to remove any unbound virus. For inhibitor assessment cultures were established in duplicate or triplicate using 5×10^4 infected cells and 1×10^5 uninfected cells in a total volume of 1.5 mls in Costar 6 well-plates. Once cultures were established they were split 1:4 every 3 days, and given fresh CM. Compound 12 (from a 10 mg/ml stock in DMSO) was added at […] at initiation of the culture and after each split. For testiing of the antiviral efficacy of compound 1200 in MT-2 were assessed every day using a Olympus (model) inverted microscope equipped with phase contrast objectives. When MT-2 cells are infected with WEAU-1.6 they form syncytia and die with in 24 hours, events easily discernible visually. A total of 200 cells were counted in each well, and when syncytia were noted, cells were removed and tested for viability by using trypan-blue. Results are expressed as the average of viable cells.

[3] = Human immunodeficiency virus 1, MT2, read-out: viable cells remaining in culture

`CC(C)[C@H](NC(=O)[C@H](C)NC(=O)OCc1ccccc1)C(=O)N[C@@H](Cc1ccccc1)[C@@H](O)[C@H](O)[C@H](Cc1ccccc1)NC(=O)[C@@H](NC(=O)[C@H](C)NC(=O)OCc1ccccc1)C(C)C` [Compound 1b] showed a Ki (FIV PR) of 0.041 µM, an IC90 (I84V mutant) of 0.4 µM and an IC90 (82F/84V mutant) of 0.9 µM. For the same compound, the “inhibition of SIV infection in tissue culture (in words)” value [1] was “strongly inhibits”, the “SIV virus expression, p27 antigen in culture supernatant” value ([1]; 1 μg/ml) was “near background” and the “inhibition of HIV infection in tissue culture (in words)” value [2] was “strongly inhibits”. For the same compound, the “free virus in supernatants, transfer to uninfected MT-2 cells” value ([2]; 1:5 dilution, after 3 weeks) was “remained uninfected”, the viability at 1.1 µM [2, 3] was 100% and the viability at 5.5 µM [2, 3] was 100%.

Reference: US6803466B1, “HIV/FIV protease inhibitors having a small P3 residue” (The Scripps Research Institute, priority 1997, dated 2004)
